From patent publication US6908733B2, “Diagnosis and treatment of human kidney diseases” (Shiva Biomedical, LLC, priority 1999, dated 2005)
“And” between values parts separate entries of the source, which are not always exact repeats. Identical values can stand only once. “Also recorded” adds a separate entry of the source.

Assays:
[1] = tested on: patients with kidney disease; assay: 24-hr urinary protein in patients with kidney disease before and after treatment with an iron chelator; assay type: in vivo, human
Procedure: Kidney disease was detected in patients by the presence of an abnormal amount of protein in the urine and/or an abnormal renal function. An abnormal amount of protein in urine is an amount of total protein greater than about 0.15 g/24 h measured by an adaptation of pyrogallol red-molydate method described by Fujita, Y., et al., Bunseki Kgaku 32:379-386 (1983), the teachings of which are hereby incorporated by reference in their entirety. Many patients, as part of their routine work up, had received kidney biopsies providing diagnosis of the nature of the kidney disease.
(§1) The diagnosis of the kidney disease was made by performing a kidney biopsy and included patients with membranoproliferative glomerulonephritis, membranous nephropathy, focal segmental sclerosis, IgA nephropathy, and diabetes as described above.
(§2) Patients with kidney disease who had abnormally high urinary protein were treated with the iron chelator deferiprone (1,2-dimethyl-3-hydroxypyrid-4-one) (L1). Deferiprone was synthesized as previously described capsule (Kontoghiorghes A. J., et al., Inorganica Chimica Acta 136:L11-L12 (1987), the teachings of which are hereby incorporated by reference in it entirety) and formulated into capsules containing 500 mg of deferiprone per capsule.
(§3) Urinary protein and serum creatinine was measured as described above before the administration of deferiprone. Patients were treated by oral ingestion of deferiprone in a range between about 30 mg and about 75 mg deferiprone per kilogram body weight per day 3 times a day. Urinary protein and serum creatinine was obtained 2-6 months after the administration of the iron chelator. […] Total urinary protein and serum creatinine measured before (e.g., pretreatment) and after the administration of deferiprone were compared using a paired t-test and p-value of <0.05 was considered significant.

[2] = tested on: patients with kidney disease; assay: Serum creatinine in patients with kidney disease before and after treatment with an iron chelator; assay type: in vivo, human
Procedure: Creatinine clearance was calculated by the standard formula Cr=Ucr V/PCr where Cr=clearance of creatinine (ml/min); Ucr=urine creatinine (mg/dl), V=volume of urine, and PCr=plasma creatinine (mg/dl).
as §1, §2, §3

[3] = individual patients, before vs after 2-6 months oral deferiprone about 30-75 mg/kg per day
[4] = mean of N=14 patients, p < 0.001
[5] = patients with kidney disease, paired t-test, p<0.05 significant

Cc1c(O)c(=O)ccn1C [deferiprone, 1,2-dimethyl-3-hydroxypyrid-4-one]
24-Hr Urinary Protein Reduction % [1, 3]: 49% and 83% and 38% and 25% and 62% and 99% and 34% and 44% and 80% and 15% and 9% and 2% and 54% and 78% | 24-Hr Urinary Protein Reduction Grams [1, 3]: 1.9 Grams and 1 Grams and 2.5 Grams and 0.7 Grams (2×) and 2.6 Grams and 5.95 Grams and 2 Grams and 2.1 Grams and 0.43 Grams and 0.5 Grams and 0.1 Grams and 1.4 Grams and 2.2 Grams | 24-Hr Urinary Protein After ([1]; individual patients, oral deferiprone about 30-75 mg/kg per day, 3 times a day, measured 2-6 months after administration): 1.5 grams/24 hrs and 0.2 grams/24 hrs and 4 grams/24 hrs and 1.6 grams/24 hrs (2×) and 0.05 grams/24 hrs and 2.8 grams/24 hrs and 2.5 grams/24 hrs and 0.1 grams/24 hrs and 3.8 grams/24 hrs and 4.8 grams/24 hrs and 4.6 grams/24 hrs and 1.2 grams/24 hrs and 0.6 grams/24 hrs | 24-Hr Urinary Protein After, Mean ([1]; mean of N=14 patients, before 3.91, 2-6 months oral deferiprone about 30-75 mg/kg per day, p < 0.001): 2.13 grams/24 hrs | 24-Hr Urinary Protein Reduction %, Mean [1, 4]: 48% | 24-Hr Urinary Protein Reduction Grams, Mean [1, 4]: 1.70 Grams | effect on total urinary protein [1, 5]: significantly decreased; also recorded: decrease | effect on serum creatinine [2, 5]: significantly decreased; also recorded: decrease | Creatinine After ([2]; serum, individual patients, 2-6 months after oral deferiprone about 30-75 mg/kg per day): 0.9 mg/dl (3×) and 1.3 mg/dl and 0.6 mg/dl and 0.5 mg/dl (2×) and 1.4 mg/dl and 0.7 mg/dl and 1.5 mg/dl and 0.8 mg/dl | Creatinine After, Mean ([2]; serum, mean of N=11 patients, before 1.10): 0.90 mg/dL
